These are literature values, as cited in US20250228849A1, “FORMULATION AND MANUFACTURING PROCESS OF LIQUID FORMULATION OF RILPIVIRINE” (Aptorum Therapeutics Limited, priority 2024, published 2025).

The conditions of data set [1]: pyrimidine nitrogen.
The conditions of data set [2]: hydrochloride salt form.

Read-outs that look alike come from different tables or passages of the source.

Regarding `Cc1cc(C=CC#N)cc(C)c1Nc1ccnc(Nc2ccc(C#N)cc2)n1.Cl` [Rilpivirine hydrochloride, 4-[[4-[[4-(2-cyanovinyl)-2,6-dimethylphenyl]amino]pyrimidin-2-yl]amino]benzonitrile hydrochloride], the pKa entry in data set [1] was “approximately 5.6”. The solubility result (in DMSO) is “moderately soluble”, the solubility entry (in ethanol) is listed as “moderately soluble”, the solubility result (in methanol) was “moderately soluble” and the solubility result (in water) was “merely sparing solubility”. The BCS class result in data set [2] is “BCS Class II”.
On to `Cc1cc(/C=C/C#N)cc(C)c1Nc1ccnc(Nc2ccc(C#N)cc2)n1` [rilpivirine], for which the solubility entry (in water) is “low aqueous solubility”.
